Laboratory results published in US20230053540A1, “TREATMENT OF LIVER INJURY” (Massachusetts Institute of Technology, priority 2019, published 2023).

System: hepatocytes
Test: Seq-Well scRNA-Seq of hepatocytes after APAP overdose (signature scores, DEG vs untreated)
Format: in vivo, mouse
[1] = cluster A6, DEG between treatment (APAP and PH)

## CC(=O)Nc1ccc(O)cc1 [APAP, acetaminophen]
[1]
  avg_logFC Tmsb4x: 0.7911
  avg_logFC Tnfrsf1a: 0.5681
  avg_logFC Tnfrsf12a: 1.105
  avg_logFC Tns1: 0.4001
  avg_logFC Tra2a: 0.7081
  avg_logFC Trp53inp1: 0.8829
  avg_logFC Tsc22d2: 0.3629
  avg_logFC Tsku: 0.3332
  avg_logFC Tsr1: 0.3392
  avg_logFC Tubb2a: 0.786
  avg_logFC Tubb6: 0.5715
  avg_logFC Txnrd1: 1.375
  avg_logFC Ugdh: 0.6085
  avg_logFC Wbp1l: 0.3897
  avg_logFC Wdr43: 0.3083
  avg_logFC Xbp1: 0.5694
  avg_logFC Ywhag: 0.5132
  avg_logFC Zyx: 0.2799
  avg_logFC mmu-mir-6240: 1.032
  avg_logFC n-R5-8s1: 0.4005
Cluster A24 (APAP, 24 h)
  avg_logFC Acly: 0.3005
  avg_logFC Arcn1: 0.2594
  avg_logFC Cltc: 0.2853
  avg_logFC Cmah: 0.2958
  avg_logFC Ctnnb1: 0.25
  avg_logFC Dnajb11: 0.2998
  avg_logFC Dnajc12: 0.2565
  avg_logFC Etnk1: 0.2761
  avg_logFC Fndc3b: 0.2502
  avg_logFC Gm26917: 0.5819
  avg_logFC Magt1: 0.253
  avg_logFC Nab1: 0.2534
  avg_logFC Nars: 0.2657
  avg_logFC Nedd4: 0.2553
  avg_logFC Ptprf: 0.2512
  avg_logFC Rab1: 0.2582
  avg_logFC Sec61b: 0.2648
  avg_logFC Srebf1: 0.2874
  avg_logFC Usp4: 0.2727
  avg_logFC Usp9x: 0.2853
Cluster A48 (APAP, 48 h)
  avg_logFC 1-Mar: 0.2986
  avg_logFC 0610005C13Rik: 0.3977
  avg_logFC 1600002H07Rik: 0.2939
  avg_logFC Abcb4: 0.4702
  avg_logFC Abcc3: 0.4075
  avg_logFC Abcd2: 0.2906
  avg_logFC Abhd14b: 0.4104
  avg_logFC Acadl1: 0.3879
  avg_logFC Acat1: 0.3773
  avg_logFC Acbd5: 0.3517
  avg_logFC Aco2: 0.3054
  avg_logFC Acot12: 0.3091
  avg_logFC Acsl1: 0.3668
  avg_logFC Agt: 0.5339
  avg_logFC Ahcy: 0.4739
  avg_logFC Ahsg: 0.2506
  avg_logFC Akr1c19: 0.3705
  avg_logFC Aldh9a1: 0.4147
  avg_logFC Aldoa: 0.2635
  avg_logFC Aldob: 0.3758
  avg_logFC Amy1: 0.495
  avg_logFC Anapc13: 0.2762
  avg_logFC Angptl3: 0.7705
  avg_logFC Apoa5: 0.4366
  avg_logFC Apoc1: 0.3638
  avg_logFC Apoc2: 0.8142
  avg_logFC Apoc3: 0.3634
  avg_logFC Apoc4: 0.5053
  avg_logFC Apoe: 0.6102
  avg_logFC Apoh: 0.5359
  avg_logFC Armc1: 0.2587
  avg_logFC Asgr2: 0.3431
  avg_logFC Aspdh: 0.326
  avg_logFC Atf5: 0.3544
  avg_logFC Atp5b: 0.3451
  avg_logFC Atp5g3: 0.3996
  avg_logFC Atp5j: 0.4575
  avg_logFC Atp5k: 0.4074
  avg_logFC Atp5h: 0.7312
  avg_logFC Azgp1: 0.2836
  avg_logFC Bfar: 0.3018
  avg_logFC Bnip3: 0.5262
  avg_logFC Brap: 0.3395
  avg_logFC Camk2n1: 0.2578
  avg_logFC Cd1d1: 0.3518
  avg_logFC Cdo1: 0.4301
  avg_logFC Cebpb: 0.4231
  avg_logFC Ces1b: 0.5308
  avg_logFC Ces1c: 0.5861
  avg_logFC Ces1f: 0.3532
  avg_logFC Ces2a: 0.3404
  avg_logFC Ces1d: 0.3324
  avg_logFC Chchd10: 0.814
  avg_logFC Cox5a: 0.4303
  avg_logFC Cox8a: 0.5202
  avg_logFC Cp: 0.2715
  avg_logFC Cpt2: 0.3214
  avg_logFC Creb3l3: 0.3228
  avg_logFC Creg1: 0.418
  avg_logFC Ctsd: 0.3237
  avg_logFC Ctsh: 0.4649
  avg_logFC Cyp4a10: 1.157
  avg_logFC Cyp4a14: 1.488
  avg_logFC Dbp: 0.2929
  avg_logFC Dcxr: 0.3518
  avg_logFC Ddb1: 0.3373
  avg_logFC Decr1: 0.5941
  avg_logFC Decr2: 0.4308
  avg_logFC Dhrs4: 0.342
  avg_logFC Ech1: 0.5251
  avg_logFC Echs1: 0.4926
  avg_logFC Eef1d: 0.2745
  avg_logFC Ephx2: 0.4864
  avg_logFC Esrra: 0.2518
  avg_logFC Etfb: 0.3542
  avg_logFC Etnppl: 0.6045
  avg_logFC F2: 0.3767
  avg_logFC F10: 0.3879
  avg_logFC F12: 0.385
  avg_logFC Fah: 0.3039
  avg_logFC Fam195a: 0.3544
  avg_logFC Fcgrt: 0.4314
  avg_logFC Fth1: 0.4342
  avg_logFC G0s2: 0.4232
  avg_logFC Gabarap: 0.4376
  avg_logFC Galk1: 0.2686
  avg_logFC Gcdh: 0.306
  avg_logFC Gchfr: 0.3676
  avg_logFC Ggnbp2: 0.2821
  avg_logFC Glrx5: 0.3308
  avg_logFC Gltscr2: 0.3759
  avg_logFC Gm6484: 0.3759
  avg_logFC Gsta2: 0.2734
  avg_logFC Gsto1: 0.3392
  avg_logFC Gstt2: 0.3234
  avg_logFC Gstt3: 0.3834
  avg_logFC Gys2: 0.4182
  avg_logFC Hdac11: 0.3963
  avg_logFC Herpud1: 0.5965
  avg_logFC Hmgcl: 0.619
  avg_logFC Hmgcs2: 0.8196
  avg_logFC Hrg: 0.436
  avg_logFC Hsd17b10: 0.4452
  avg_logFC Hsd17b13: 0.6427
  avg_logFC Ifnar2: 0.2833
  avg_logFC Khk: 0.5338
  avg_logFC Lamp1: 0.3377
  avg_logFC Lcat: 0.4733
  avg_logFC Lims2: 0.3931
  avg_logFC Lipa: 0.3277
  avg_logFC Mat1a: 0.6585
  avg_logFC Mfsd2a: 0.5827
  avg_logFC Mgll: 0.3192
  avg_logFC Mia3: 0.3374
  avg_logFC Mlycd: 0.4637
  avg_logFC Mrpl43: 0.2692
  avg_logFC Ndrg2: 0.3498
  avg_logFC Ndufb2: 0.407
  avg_logFC Ndufb10: 0.3471
  avg_logFC Ndufs7: 0.2882
  avg_logFC Ninj1: 0.3542
  avg_logFC Nr1i3: 0.5739
  avg_logFC Oaf: 0.5619
  avg_logFC Pabpc1: 0.5116
  avg_logFC Park7: 0.403
  avg_logFC Pbld1: 0.3989
  avg_logFC Pbld2: 0.3619
  avg_logFC Pigr: 0.4224
  avg_logFC Pitpnb: 0.2726
  avg_logFC Plin5: 0.3264
  avg_logFC Pnpla2: 0.3457
  avg_logFC Ppara: 0.3442
  avg_logFC Prodh2: 0.5179
  avg_logFC Rabac1: 0.3343
  avg_logFC Rbp4: 0.5139
  avg_logFC Rdh7: 0.5575
  avg_logFC Reep6: 0.5902
  avg_logFC Retsat: 0.8734
  avg_logFC Rgs16: 0.3803
  avg_logFC Rpl4: 0.3744
  avg_logFC Rpl38: 0.3455
  avg_logFC Scand1: 0.2581
  avg_logFC Sco2: 0.317
  avg_logFC Sdhc: 0.4334
  avg_logFC Sdhd: 0.4849
  avg_logFC Sec14l2: 0.389
  avg_logFC Serpina1d: 0.3563
  avg_logFC Serpinf1: 0.3954
  avg_logFC Serping1: 0.4435
  avg_logFC Sh3glb1: 0.3259
  avg_logFC Shmt1: 0.3827
  avg_logFC Slc10a1: 0.4562
  avg_logFC Slc25a10: 0.4539
  avg_logFC Slc25a20: 0.4208
  avg_logFC Slc25a47: 0.5249
  avg_logFC Slc27a2: 0.3146
  avg_logFC Slc27a5: 0.41
  avg_logFC Slc37a4: 0.4211
  avg_logFC Slc40a1: 0.332
  avg_logFC Slco1a4: 0.5466
  avg_logFC Smlr1: 0.3065
  avg_logFC Snord118: 0.5286
